Tests used:
Assay in all cases: pIC50, kinobeads binding competition
Details in all cases: cell material: Jurkat lysate
UniProt P19525 = target: UniProt P19525
ABL2 = ABL2 (UniProt P42684)
WEE1 = WEE1 (UniProt P30291)
GAK = target: T1, GAK (UniProt O14976)
T1 sequence (whole entry): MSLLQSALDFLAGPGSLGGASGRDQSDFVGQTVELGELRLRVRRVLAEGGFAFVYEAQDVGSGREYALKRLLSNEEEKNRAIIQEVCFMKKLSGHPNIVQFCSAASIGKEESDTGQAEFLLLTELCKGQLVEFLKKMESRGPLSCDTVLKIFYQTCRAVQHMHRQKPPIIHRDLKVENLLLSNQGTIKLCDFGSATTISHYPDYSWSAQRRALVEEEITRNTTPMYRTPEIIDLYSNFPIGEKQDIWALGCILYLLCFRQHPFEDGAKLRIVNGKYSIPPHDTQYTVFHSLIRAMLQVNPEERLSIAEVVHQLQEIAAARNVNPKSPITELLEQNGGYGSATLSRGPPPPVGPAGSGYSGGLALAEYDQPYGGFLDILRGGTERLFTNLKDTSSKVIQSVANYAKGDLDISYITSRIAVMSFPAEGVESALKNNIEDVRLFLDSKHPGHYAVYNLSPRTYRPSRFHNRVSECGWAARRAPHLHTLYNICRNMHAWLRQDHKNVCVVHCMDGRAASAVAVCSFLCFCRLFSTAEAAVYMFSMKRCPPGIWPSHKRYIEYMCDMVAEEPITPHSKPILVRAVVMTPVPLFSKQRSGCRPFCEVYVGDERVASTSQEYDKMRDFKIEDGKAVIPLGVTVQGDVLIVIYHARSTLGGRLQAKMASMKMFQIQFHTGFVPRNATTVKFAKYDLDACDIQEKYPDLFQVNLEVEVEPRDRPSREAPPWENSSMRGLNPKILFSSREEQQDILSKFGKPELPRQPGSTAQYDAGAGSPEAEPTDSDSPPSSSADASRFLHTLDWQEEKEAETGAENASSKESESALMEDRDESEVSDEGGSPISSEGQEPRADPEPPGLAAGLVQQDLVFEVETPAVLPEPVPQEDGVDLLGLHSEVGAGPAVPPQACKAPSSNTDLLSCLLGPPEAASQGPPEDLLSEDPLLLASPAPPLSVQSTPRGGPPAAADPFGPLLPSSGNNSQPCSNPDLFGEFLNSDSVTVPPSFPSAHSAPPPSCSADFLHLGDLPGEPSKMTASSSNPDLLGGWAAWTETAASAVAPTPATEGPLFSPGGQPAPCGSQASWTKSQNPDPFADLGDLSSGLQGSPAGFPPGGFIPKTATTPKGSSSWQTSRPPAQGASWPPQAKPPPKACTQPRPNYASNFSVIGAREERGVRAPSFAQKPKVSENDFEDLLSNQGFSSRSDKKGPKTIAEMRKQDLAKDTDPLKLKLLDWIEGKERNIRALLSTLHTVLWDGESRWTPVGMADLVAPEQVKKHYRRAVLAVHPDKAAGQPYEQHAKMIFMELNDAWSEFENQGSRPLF

MAST3 = MAST3 (UniProt O60307)
UniProt P45985 = target: T2, UniProt P45985
T2 sequence (whole entry): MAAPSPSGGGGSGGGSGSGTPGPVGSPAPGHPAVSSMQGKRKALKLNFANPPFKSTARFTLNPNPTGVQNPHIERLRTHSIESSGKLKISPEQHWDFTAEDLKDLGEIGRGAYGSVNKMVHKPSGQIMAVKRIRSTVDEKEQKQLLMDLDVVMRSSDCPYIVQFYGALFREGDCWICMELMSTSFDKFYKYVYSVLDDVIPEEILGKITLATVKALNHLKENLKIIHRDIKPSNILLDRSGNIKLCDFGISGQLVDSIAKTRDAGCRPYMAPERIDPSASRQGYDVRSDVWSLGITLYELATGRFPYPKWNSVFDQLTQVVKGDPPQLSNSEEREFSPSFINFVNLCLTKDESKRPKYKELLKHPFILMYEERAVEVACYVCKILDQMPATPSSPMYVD

CAMKK1 = CAMKK1 (UniProt Q8N5S9)
UniProt P19784 = target: UniProt P19784
ACVR2B = ACVR2B (UniProt Q13705)
PRKD2 = target: T3, PRKD2 (UniProt Q9BZL6)
T3 sequence (whole entry): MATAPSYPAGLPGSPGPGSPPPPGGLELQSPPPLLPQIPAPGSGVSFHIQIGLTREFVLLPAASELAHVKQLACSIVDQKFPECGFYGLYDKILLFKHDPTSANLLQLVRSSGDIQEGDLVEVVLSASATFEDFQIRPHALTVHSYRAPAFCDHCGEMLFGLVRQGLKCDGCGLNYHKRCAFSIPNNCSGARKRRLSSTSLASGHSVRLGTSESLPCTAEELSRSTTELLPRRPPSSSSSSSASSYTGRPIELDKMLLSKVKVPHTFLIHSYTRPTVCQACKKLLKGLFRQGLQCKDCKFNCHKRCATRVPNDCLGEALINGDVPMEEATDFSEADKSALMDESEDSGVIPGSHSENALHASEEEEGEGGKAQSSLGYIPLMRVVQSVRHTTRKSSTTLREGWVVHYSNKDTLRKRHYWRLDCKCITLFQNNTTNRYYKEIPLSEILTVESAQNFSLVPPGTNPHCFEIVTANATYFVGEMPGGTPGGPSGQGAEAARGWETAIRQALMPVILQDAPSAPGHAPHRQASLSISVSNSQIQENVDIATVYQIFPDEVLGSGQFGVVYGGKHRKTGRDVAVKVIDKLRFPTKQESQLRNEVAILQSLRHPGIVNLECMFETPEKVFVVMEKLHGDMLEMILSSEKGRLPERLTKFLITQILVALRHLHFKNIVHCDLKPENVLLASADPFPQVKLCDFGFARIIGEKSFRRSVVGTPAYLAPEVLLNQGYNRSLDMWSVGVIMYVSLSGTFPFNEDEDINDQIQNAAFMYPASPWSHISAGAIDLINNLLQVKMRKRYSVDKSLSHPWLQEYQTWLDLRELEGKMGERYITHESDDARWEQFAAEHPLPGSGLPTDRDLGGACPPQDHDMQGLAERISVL

pIC50 (UniProt P19525): < 4.52
pIC50 (ABL2): < 4.52
pIC50 (WEE1): < 4.52
pIC50 (GAK): < 4.52
pIC50 (MAST3): < 4.52
pIC50 (UniProt P45985): < 4.52
pIC50 (CAMKK1): 4.6
pIC50 (UniProt P19784): < 4.52
pIC50 (ACVR2B): < 4.52
pIC50 (PRKD2): < 4.52
Compound: CCc1cnn2c(NCc3ccc[n+]([O-])c3)cc(N3CCCC[C@H]3CCO)nc12 [dinaciclib]
